Assay results published in ChEMBL document CHEMBL5038634, “Virtual Screening Directly Identifies New Fragment-Sized Inhibitors of Carboxylesterase Notum with Nanomolar Activity” (J Med Chem, 2022).
Values after ≈ are worked out from the molar mass of the structure shown. Values joined by “and” are separate entries in the source; they are usually repeats but may differ in a detail not shown here. Equal values may be shown once.

Legend:
[1] = target: T1, Palmitoleoyl-protein carboxylesterase NOTUM (Homo sapiens, UniProt Q6P988, C330S); assay: Inhibition of human Notum (81 to 451 Cys330Ser) using OPTS as substrate incubated for 40 mins by fluorescence based assay
[2] = target: T1, Palmitoleoyl-protein carboxylesterase NOTUM; assay: Inhibition of Notum (81 to 451 Cys330Ser) in HEK293T cells expressing TCF-LEF assessed as activation of Wnt signaling using WNT3A as substrate incubated for […] by Steady-Glo luciferase assay; type: cell-based
HEK-293T [3] = assay: Cytotoxicity against HEK293T cells expressing TCF-LEF assessed as adverse effects on cell health by Cell Titre Glo assay; type: toxicity, cell-based; details: human
HEK-293T [4] = assay: Cytotoxicity against HEK293T cells expressing TCF-LEF assessed as effect on total cell number by GFP based assay; type: toxicity; details: human
[5] = C0 in C57BL/6J mouse at 0.4 mg/kg, iv measured at 0.08 to 24 hrs by LC-MS/MS analysis; type: ADME, organism-based; details: in vivo, time 0.08-24 hrs
[6] = Half life in C57BL/6J mouse at 0.4 mg/kg, iv measured at 0.08 to 24 hrs by LC-MS/MS analysis; type: ADME, organism-based; details: in vivo, time 0.08-24 hrs
[7] = Volume of distribution at steady state in C57BL/6J mouse at 0.4 mg/kg, iv measured at 0.08 to 24 hrs by LC-MS/MS analysis; type: ADME, organism-based; details: in vivo, time 0.08-24 hrs, read-out: Vdss
[8] = Clearance in C57BL/6J mouse at 0.4 mg/kg, iv measured at 0.08 to 24 hrs by LC-MS/MS analysis; type: ADME, organism-based; details: in vivo, time 0.08-24 hrs
[9] = AUC (infinity) in C57BL/6J mouse at 0.4 mg/kg, iv measured at 0.08 to 24 hrs by LC-MS/MS analysis; type: ADME, organism-based; set-up: route intravenous, time upper 24 hrs, time lower 0.08 hrs, dose 0.4 mg/kg; details: in vivo
[10] = AUC (all) in C57BL/6J mouse at 0.4 mg/kg, iv measured at 0.08 to 24 hrs by LC-MS/MS analysis; type: ADME, organism-based; set-up: route intravenous, time 0.08-24 hrs, dose 0.4 mg/kg; details: in vivo
[11] = Drug concentration in C57BL/6J mouse brain at 0.4 mg/kg, iv measured at 1 hr by LC-MS/MS analysis; type: ADME, organism-based; details: read-out: Drug uptake
[12] = Drug concentration in C57BL/6J mouse brain at 0.4 mg/kg, iv measured at 4 hrs by LC-MS/MS analysis; type: ADME, organism-based; details: read-out: Drug uptake
[13] = Apparent permeability from apical to basolateral side in dog MDCKII-MDR1 cells at 10 uM incubated upto 120 mins by LC-MS/MS analysis; type: ADME, cell-based, Canis lupus familiaris; details: MDCK-MDR1
[14] = Aqueous solubility of the compound at pH 7.4 in pION buffer at 500uM incubated for 18 hrs by spectrophotometry analysis; type: physicochemical
[15] = Intrinsic clearance in mouse liver microsome at 1 uM incubated upto 60 mins in presence of NADPH by LC-MS/MS analysis; type: ADME; details: liver microsomes, read-out: CLH
[16] = Plasma protein binding in CD-1 mouse assessed as unbound fraction at 2 uM by Equilibrium dialysis method; type: ADME, cell-free
[17] = Acidic dissociation constant, pKa of the compound at pH 7.4; type: physicochemical
[18] = Plasma protein binding in CD-1 mouse at 2 uM by Equilibrium dialysis method; type: ADME, cell-free; details: read-out: PPB (converted)
[19] = Apparent permeability from basolateral to apical side in dog MDCKII-MDR1 cells at 10 uM incubated upto 120 mins by LC-MS/MS analysis; type: ADME, cell-based, Canis lupus familiaris; details: MDCK-MDR1
[20] = Stability in mouse liver microsome assessed as half life at 1 uM incubated upto 60 mins in presence of NADPH by LC-MS/MS analysis; type: ADME; details: liver microsomes
[21] = Apparent permeability in MDCKII-MDR1 cells assessed as compound recovery at 10 uM incubated upto 120 mins by LC-MS/MS analysis; type: ADME, cell-based, Canis lupus familiaris; details: dog, MDCK-MDR1, read-out: Activity

O=c1[nH]nc2ccc(Sc3ccc(C(F)(F)F)cc3)nn12
IC50 [1]: 28 nM | EC50 [2]: 300 nM

O=c1[nH]nc2ccc(Sc3ccc(Cl)c(Cl)c3)nn12
IC50 [1]: 5 nM | EC50 [2]: 110 nM | Activity (HEK-293T [3]): Non-Toxic | Activity (HEK-293T [4]): Non-Toxic | C0 [5]: 1580 ng/mL | half-life [6]: 42 min | Vd [7]: 0.7 L/kg | clearance [8]: 17.8 mL/min/kg | AUC(0-inf) [9]: 370 ng·h/mL | AUC [10]: 360 ng·h/mL | concentration at 1 h [11]: < 5 ng/mL | concentration at 4 h [12]: < 5 ng/mL

Cc1ccc(Sc2ccc3n[nH]c(=O)n3n2)nc1
IC50 [1]: 3600 nM

Cc1ccc(/C=C2/N=C(c3cccc(Cl)c3Cl)OC2=O)o1
IC50 [1]: 22 nM

O=c1[nH]nc2ccc(Sc3cccc(C(F)(F)F)n3)nn12
IC50 [1]: 410 nM | EC50 [2]: > 10000 nM

O=c1[nH]nc2ccc(Sc3ccccc3F)nn12
IC50 [1]: 87 nM | EC50 [2]: 1100 nM

O=c1[nH]nc2ccc(Sc3ccccc3C(F)(F)F)nn12
IC50 [1]: 89 nM | EC50 [2]: 930 nM

COc1ccc(/C=C2/N=C(c3cccc(Cl)c3Cl)OC2=O)c(OC)c1
IC50 [1]: > 10000 nM

O=c1[nH]nc2ccc(Sc3cccc(F)c3)nn12
IC50 [1]: 30 nM | EC50 [2]: 260 nM

Cc1cccc(Sc2ccc3n[nH]c(=O)n3n2)n1
IC50 [1]: 650 nM | EC50 [2]: > 10000 nM

Cc1cccc(Sc2ccc3n[nH]c(=O)n3n2)c1
IC50 [1]: 9 nM | EC50 [2]: 240 nM

O=c1[nH]nc2ccc(Sc3ccc(F)c(F)c3)nn12
IC50 [1]: 120 nM | EC50 [2]: 1100 nM

Cc1ccc(Sc2ccc3n[nH]c(=O)n3n2)cc1C
IC50 [1]: 7 nM | EC50 [2]: 130 nM

O=C1OC(c2cccc(Cl)c2Cl)=N/C1=C/c1ccco1
IC50 [1]: 12 nM

Cc1ccccc1COc1nn2c(=O)c(C)nnc2s1
IC50 [1]: 320 nM and 1600 nM

O=c1[nH]nc2ccc(Sc3ccccc3Cl)nn12
IC50 [1]: 30 nM | EC50 [2]: 720 nM

O=c1[nH]nc2ccc(Sc3cccc(OC(F)(F)F)c3)nn12
IC50 [1]: 4 nM | EC50 [2]: 34 nM | Activity (HEK-293T [3]): Non-Toxic | Activity (HEK-293T [4]): Non-Toxic | C0 [5]: 1900 ng/mL | half-life [6]: 6 min | Vd [7]: 0.2 L/kg | clearance [8]: 24.8 mL/min/kg | AUC(0-inf) [9]: 270 ng·h/mL | AUC [10]: 270 ng·h/mL | concentration at 1 h [11]: < 5 ng/mL | concentration at 4 h [12]: < 5 ng/mL

O=c1[nH]nc2ccc(Sc3cccc(Cl)c3)nn12
IC50 [1]: 6 nM | EC50 [2]: 88 nM | Activity (HEK-293T [3]): Non-Toxic | Activity (HEK-293T [4]): Non-Toxic | C0 [5]: 1750 ng/mL | half-life [6]: 18 min | Vd [7]: 0.3 L/kg | clearance [8]: 22.2 mL/min/kg | AUC(0-inf) [9]: 300 ng·h/mL | AUC [10]: 300 ng·h/mL | concentration at 1 h [11]: < 5 ng/mL | concentration at 4 h [12]: < 5 ng/mL

O=c1[nH]nc2ccc(Sc3ccc(Cl)cc3)nn12
IC50 [1]: 21 nM | EC50 [2]: 310 nM

Cc1ccc(Sc2ccc3n[nH]c(=O)n3n2)cc1
Papp A→B at 2 h, 10 µM [13]: 52 ×10⁻⁶ cm/s | IC50 [1]: 27 nM | EC50 [2]: 86 nM | solubility at 18 h, 500 µM [14]: 32 µg/mL and 120 µM | microsomal CLint at 1 µM [15]: 21 µL/min/mg | Activity (HEK-293T [3]): Non-Toxic | Activity (HEK-293T [4]): Non-Toxic | fraction unbound at 2 µM [16]: 0.011 | pKa [17]: 7.9 | fraction unbound at 2 µM [18]: 0.012 | C0 [5]: 2620 ng/mL | half-life [6]: 36 min | Vd [7]: 0.1 L/kg | clearance [8]: 2.8 mL/min/kg | AUC(0-inf) [9]: 2350 ng·h/mL | AUC [10]: 2330 ng·h/mL | concentration at 1 h [11]: < 5 ng/mL | concentration at 4 h [12]: < 5 ng/mL | Papp B→A at 2 h, 10 µM [19]: 43 ×10⁻⁶ cm/s

Cc1ccc(/C=C2\N=C(c3ccc(C)c(C)c3)OC2=O)o1
IC50 [1]: 17 nM | solubility at 18 h, 500 µM [14]: 0.31 µg/mL (≈ 1.1 µM) | microsomal CLint at 1 µM [15]: 1.9 µL/min/mg | half-life at 1 µM [20]: 360 min | recovery at 2 h, 10 µM [21]: < 25%

O=c1[nH]nc2ccc(Sc3ccccc3)nn12
IC50 [1]: 150 nM

Cc1ccc(Oc2ccc3n[nH]c(=O)n3n2)cc1
IC50 [1]: 3100 nM

O=C1OC(c2cccc3ccccc23)=N/C1=C/c1ccco1
IC50 [1]: 100 nM

Cc1ccccc1Sc1ccc2n[nH]c(=O)n2n1
IC50 [1]: 50 nM | EC50 [2]: 300 nM

Cc1cc(C)cc(Sc2ccc3n[nH]c(=O)n3n2)c1
IC50 [1]: 47 nM

COC(=O)CCC(=O)N1CCc2ccccc21
IC50 [1]: 90 nM

O=C1OC(c2ccc(Cl)cc2Cl)=N/C1=C/c1ccco1
IC50 [1]: 48 nM

Cc1ccc(S(=O)(=O)c2ccc3n[nH]c(=O)n3n2)cc1
IC50 [1]: > 10000 nM

COc1cccc(Sc2ccc3n[nH]c(=O)n3n2)c1
IC50 [1]: 15 nM | EC50 [2]: 140 nM

Cc1ccc(Sc2ccc3nn(C)c(=O)n3n2)cc1
IC50 [1]: > 10000 nM

Cc1ccc(C2=N/C(=C/c3ccccc3)C(=O)O2)cc1C
IC50 [1]: 200 nM

O=c1[nH]nc2ccc(Sc3cccc(Cl)c3Cl)nn12
IC50 [1]: 13 nM | EC50 [2]: 150 nM

Cc1ccc(Nc2ccc3n[nH]c(=O)n3n2)cc1
IC50 [1]: 690 nM

O=c1[nH]nc2ccc(Sc3ncccn3)nn12
IC50 [1]: > 10000 nM

O=c1[nH]nc2ccc(Sc3ccc(F)cc3)nn12
IC50 [1]: 94 nM | EC50 [2]: 540 nM

O=c1[nH]nc2ccc(Sc3ccc(Cl)cc3Cl)nn12
IC50 [1]: 20 nM | EC50 [2]: 380 nM

Cc1ccc(/C=C2/N=C(c3ccc(C)c(C)c3)OC2=O)o1
IC50 [1]: 8.5 nM

O=c1[nH]nc2ccc(Sc3cccc(C(F)(F)F)c3)nn12
IC50 [1]: 17 nM | EC50 [2]: 190 nM

O=c1[nH]nc2ccc(Sc3cccc(F)c3F)nn12
IC50 [1]: 63 nM

Cc1ccc([S+]([O-])c2ccc3n[nH]c(=O)n3n2)cc1 (stereo unspecified)
IC50 [1]: > 10000 nM

O=C1OC(c2cccc(Cl)c2Cl)=N/C1=C/c1cccs1
IC50 [1]: 54 nM

CC(C)Oc1cccc(Sc2ccc3n[nH]c(=O)n3n2)c1
IC50 [1]: 25 nM | EC50 [2]: 260 nM

CSc1cccc(Sc2ccc3n[nH]c(=O)n3n2)c1
IC50 [1]: 24 nM | EC50 [2]: 380 nM

Cc1cccc(Sc2ccc3n[nH]c(=O)n3n2)c1C
IC50 [1]: 14 nM

Cc1ccnc(Sc2ccc3n[nH]c(=O)n3n2)c1
IC50 [1]: 2700 nM

Cc1ccc(Sc2nn3c(=O)[nH]nc3c(C)c2C)cc1
IC50 [1]: > 10000 nM

Cc1ccc(C2=N/C(=C/c3cccs3)C(=O)O2)cc1C
IC50 [1]: 24 nM

CCOc1cccc(Sc2ccc3n[nH]c(=O)n3n2)c1
IC50 [1]: 20 nM | EC50 [2]: 150 nM

Cc1ccc(Sc2ccc3n[nH]c(=O)n3n2)c(C)c1
IC50 [1]: 27 nM | EC50 [2]: 300 nM

Cc1ccc(Cc2ccc3n[nH]c(=O)n3n2)cc1
IC50 [1]: 240 nM

O=C1OC(c2ccc(Cl)cc2Cl)=N/C1=C\c1ccco1
IC50 [1]: 14 nM

Cc1ccc(N(C)c2ccc3n[nH]c(=O)n3n2)cc1
IC50 [1]: 990 nM

Cc1ccc(Sc2cc(C)c3n[nH]c(=O)n3n2)cc1
IC50 [1]: 70 nM

O=c1[nH]nc2ccc(Sc3ccncn3)nn12
IC50 [1]: > 10000 nM
